Measured values: paper PMC11096368, “Transcriptomic signature, bioactivity and safety of a non-hepatotoxic analgesic generating AM404 in the midbrain PAG region” (Scientific Reports, 2024)
Like-named read-outs stand apart in the source and are kept apart here.

Assays:
[1] = LC–MS/MS detection of D10-SRP-001 and AM404 in the periaqueductal gray (PAG); format: in vivo, rats; conditions: 32 mg/kg ip, 30 min post-injection, rats with CFA or vehicle
Procedure: Next, we sought to define the uptake of SRP-001 in the nociception area of the brain, the midbrain’s periaqueductal (PAG) area[42],[43]. Thirty min following ip-SRP-001 administration (32 mg/kg), the PAG was harvested and analyzed by LC/MS–MS. D10-SRP-001 was used to match the fragmentation pattern while monitoring analytes.
Deuterated compound D10-SRP-001 was synthesized by Olon Ricerca Bioscience (Concord, OH), and purity was determined to be > 99.9% by HPLC. This was used as pure analytical standard for detection of SRP-001 using an LC–MS/MS method. Similarly, pure analytical standard of AM404 (10 ng/mL) obtained from Cayman Chemical (Ann Arbor, MI) was used to characterize the full fragmentation pattern of AM404. […] Thirty min post-injection, the animals were sacrificed (same as in the CFA/von Frey model), their brains harvested, and the midbrain periaqueductal gray (PAG) region excised. SRP-001 or AM404 were extracted from the PAG using a liquid–liquid extraction method using 1:1 MeOH:H2O for LC–MS/MS and were loaded onto a liquid chromatography-tandem mass spectrophotometer for analysis. The mass spectrophotometer was operated in multiple reaction monitoring (MRM) mode using positive ion electrospray. D10-SRP-001 was detected by monitoring the m/z transition 416 → 186. AM404 was detected by monitoring the m/z transition 396 → 287.

[2] = Phase 1 multiple ascending dose (MAD) pharmacokinetics; format: in vivo, human; conditions: for half-life: human, plasma, oral
Procedure: A randomized, double-blind, placebo-controlled Phase 1 trial (ClinicalTrials.gov identifier: NCT05484414) (02/08/2022) was conducted to assess the safety, tolerability, food effect, pharmacokinetics (PK), and pharmacodynamics (PD) of single and multiple ascending doses of SRP-001 (Quotient Sciences, Miami FL USA; Fig. 3h - k and Methods). The trial was conducted in accordance with the International Council for Harmonisation of Technical Requirements for Pharmaceuticals for Human Use (ICH), Guideline for GCP: Consolidated Guidance (E6), attained Institutional Review Board approval, and all applicable regulatory requirements for Phase 1, First in Human clinical trials. Safety measurements and plasma samples to determine PK parameters were collected throughout the study for all subjects and reviewed by the Safety Review Committee. PK stopping criteria were established to assure that systemic exposure to SRP-001 was less than or equal to the systemic exposure achieved at the NOAEL doses in the 28-day repeat-dose toxicology studies in the rat and dog. The trial’s Safety Advisory Committee has approved the publication of the Phase 1 results.
SRP-001 was administered as an oral nanosuspension to 56 healthy volunteers across five Single Ascending Dose (SAD) and two Multiple Ascending Dose (MAD) cohorts, with 42 subjects receiving SRP-001 and 14 receiving a placebo.
A two-part randomized, double-blind, placebo-controlled Phase 1 trial was conducted to assess the safety, tolerability, PK and PD of SRP-001 ascending doses (Quotient Sciences, Miami, FL, USA). The study was conducted in accordance with the International Council for Harmonisation of Technical Requirements for Pharmaceuticals for Human Use (ICH), Guideline for GCP: Consolidated Guidance (E6), and applicable regulatory requirements(s) including clinical research guidelines established by the Basic Principles defined in the U.S. 21 CFR Parts 50, 56, and 312 and the principles enunciated in the Declaration of Helsinki (revised version Fortaleza 2013). The clinical protocol and informed consent form were reviewed and approved by an Institutional Review Board (IRB; Advarra IRB, 6100 Merriweather Drive, Suite 600, Columbia, MD 21,044; Quotient Protocol No. SRP-101 and Quotient Sciences Study No. QSC205130; Quotient Sciences Miami, 3898 NW 7th Street, Miami, FL 33,126.). The study comprises a SAD (Part 1) assessment that includes a food effect assessment that contributes data to inform a subsequent MAD (Part 2) dose-ranging study. Safety measurements were collected throughout the study for all subjects. Blood samples were collected to determine the PK parameters of SRP-001 (ClinicalTrials.gov identifier: NCT05484414) (02/08/2022).

[3] = tested on: beagle dogs; conditions: dog, in vivo
Procedure: Two beagle dogs (1/sex) were administered 30, 100, 250, or 500 mg/kg SRP-001. […] After a period of at least 2 d (minimum of 44 h) following the previous dose of test article, additional dose levels of SRP-001, as indicated above, were administered by oral gavage to the same 2 dogs (1 male and 1 female). Each dose was based on the dog’s most recent body weight. Mortality/morbidity was observed twice daily and once prior to scheduled sacrifice. Body weights were recorded prior to randomization/selection, prior to each dose administration, and prior to scheduled sacrifice. At scheduled sacrifice, a gross necropsy was performed, and the tissues were appropriately discarded. […] Doses for Phase II of the study were set based on Phase I results. The actual dose amounts selected for Phase II of the study were 0, 30, 100, or 300 mg/kg/d of SRP-001. These doses were administered once daily for seven consecutive days to 1 Beagle dog/sex/dose.

[4] = Stability of API and oral nanosuspension; format: physicochemical
Procedure: The drug therapeutic candidate is manufactured in a two-step process (Latitude Pharmaceuticals, Inc., San Diego, CA, USA). First, SRP-001 is jet milled. Second, the milled API is dispersed in a solution comprising 1% hydroxypropyl cellulose (1% HPC) and sterile water for injection and subjected to wet milling. The target particle size is approximately D90 0.15 μm. […] An oral nanoparticle suspension containing 100 mg/mL SRP-001 in aqueous 1% HPC preserved with 0.1% sodium benzoate was manufactured for use in nonclinical studies as Lot LPI2021028 and stored at 5 °C ± 3 °C. […] The same formulation as above was manufactured under cGMP for use in clinical studies as Lot LPI2021031 and stored at 5 °C ± 3 °C. […] This lot has been placed on stability at 5 °C, 25 °C/60%RH, and 40 °C/75%RH. Finally, an appearance-matched placebo consisting of 2% microcrystalline cellulose in aqueous 1% HPC preserved with 0.1% sodium benzoate and 0.05% EDTA disodium dihydrate was manufactured under cGMP for use in clinical studies. The above oral suspensions were manufactured by Latitude Pharmaceuticals Inc. (San Diego, CA, USA).

Row | Compound | AM404 production in the periaqueductal gray region [1] | PK parameters on Day 5 versus Day 1 ([2]; Phase 1 MAD cohort) | half-life ([2]; 500 mg, MAD, 500 mg dose, Day 1, read-out: Geometric mean T1/2 (converted)) | half-life ([2]; 500 mg, MAD, 500 mg dose, Day 5, read-out: Geometric mean T1/2 (converted)) | half-life ([2]; 1000 mg, MAD, 1,000 mg dose, Day 1, read-out: Geometric mean T1/2 (converted)) | half-life ([2]; 1000 mg, MAD, 1,000 mg dose, Day 5, read-out: Geometric mean T1/2 (converted)) | half-life ([2]; MAD cohorts, read-out: Arithmetic mean T1/2 (converted)) | half-life ([2]; Phase 1 trial, read-out: Half-life) | Gross necropsy [3] | Stability of the API ([4]; 25 °C/60%RH) | Stability of the API ([4]; 40 °C/75%RH)
1 | CC(=O)Nc1ccc(O)cc1 [ApAP, acetaminophen, reference compound] | diminished | – | – | – | – | – | – | – | – | – | –
2 | CCN(CC)C(=O)c1ccccc1S(=O)(=O)NCC(=O)Nc1ccc(O)cc1 [SRP-001, N,N-diethyl-2-[[2-(4-hydroxyanilino)-2-oxo-ethyl]sulfamoyl]benzamide] | – | decrease | 3.06 h | 4.92 h | 4.05 h | 9.77 h | 5.57 h | 4.9 to 9.8 h | some red discoloration in the GI tract | at least 9 months | ≥ 6 months
